Results taken from the supplement of paper PMC10307832.

Columns and labels:
Test in all cases: relative viability (nuclei count vs DMSO), 5 days (fraction); higher = more cells survive
[1] = compound: C1CN(CCN1)C2=CC=C(C=C2)C3=CN4C(=C(C=N4)C5=CC=NC6=CC=CC=C56)N=C3 [DM3189] + CC(=O)Nc1cccc(-n2c(=O)n(C3CC3)c(=O)c3c(Nc4ccc(I)cc4F)n(C)c(=O)c(C)c32)c1 [Trametinib] (partner 0.02 µM)
Summary of the method: (§1)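 Relative viability is defined as nuclei in treated wells over nuclei in vehicle wells. Duplicate plates were run and medians reported. Lung cancer cell lines in 1536-well plates were dosed by pin tool one day after seeding, with one drug or with a fixed anchor-drug dose plus five library-drug doses (not always all listed) in √10 steps, and nuclei were counted after 5 days.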

[2] = compound: C1CN(CCN1)C2=CC=C(C=C2)C3=CN4C(=C(C=N4)C5=CC=NC6=CC=CC=C56)N=C3 [DM3189] + CS(=O)(=O)CCNCc1ccc(-c2ccc3ncnc(Nc4ccc(OCc5cccc(F)c5)c(Cl)c4)c3c2)o1 [Lapatinib] (partner 2 µM)
Summary of the method: as §1

[3] = compound: C1CN(CCN1)C2=CC=C(C=C2)C3=CN4C(=C(C=N4)C5=CC=NC6=CC=CC=C56)N=C3 [DM3189] + CS(=O)(=O)N1CCN(Cc2cc3nc(-c4cccc5[nH]ncc45)nc(N4CCOCC4)c3s2)CC1 [Pictilisib] (partner 1 µM)
Summary of the method: as §1

[4] = compound: C1CN(CCN1)C2=CC=C(C=C2)C3=CN4C(=C(C=N4)C5=CC=NC6=CC=CC=C56)N=C3 [DM3189] + CC(=O)c1c(C)c2cnc(Nc3ccc(N4CCNCC4)cn3)nc2n(C2CCCC2)c1=O [Palbociclib] (partner 0.5 µM)
Summary of the method: as §1

[5] = compound: C1CN(CCN1)C2=CC=C(C=C2)C3=CN4C(=C(C=N4)C5=CC=NC6=CC=CC=C56)N=C3 [DM3189] + CCNC(=O)c1noc(-c2cc(C(C)C)c(O)cc2O)c1-c1ccc(CN2CCOCC2)cc1 [Luminespib] (partner 0.01 µM)
Summary of the method: as §1

| Cell Line | relative viability ([1]; first compound 0.08 µM) | relative viability ([1]; first compound 0.253 µM) | relative viability ([1]; first compound 0.8 µM) | relative viability ([1]; first compound 2.53 µM) | relative viability ([2]; first compound 0.08 µM) | relative viability ([2]; first compound 0.253 µM) | relative viability ([2]; first compound 0.8 µM) | relative viability ([2]; first compound 2.53 µM) | relative viability ([3]; first compound 0.08 µM) | relative viability ([3]; first compound 0.253 µM) | relative viability ([3]; first compound 0.8 µM) | relative viability ([3]; first compound 2.53 µM) | relative viability ([4]; first compound 0.08 µM) | relative viability ([4]; first compound 0.253 µM) | relative viability ([4]; first compound 0.8 µM) | relative viability ([4]; first compound 2.53 µM) | relative viability ([5]; first compound 0.08 µM) | relative viability ([5]; first compound 0.253 µM) | relative viability ([5]; first compound 0.8 µM) | relative viability ([5]; first compound 2.53 µM) |
| --- | --- | --- | --- | --- | --- | --- | --- | --- | --- | --- | --- | --- | --- | --- | --- | --- | --- | --- | --- | --- |
| HCC-366 | 0.414 | 0.362 | 0.352 | 0.432 | 0.839 | 0.93 | 0.681 | 0.931 | 0.209 | 0.134 | 0.116 | 0.137 | 0.408 | 0.286 | 0.244 | 0.341 |  |  |  |  |
| HCC-827 | 0.492 | 0.535 | 0.502 | 0.54 | 0.179 | 0.161 | 0.16 | 0.192 | 1.19 | 1.06 | 1.02 | 1.15 | 0.539 | 0.437 | 0.452 | 0.428 | 0.589 | 0.515 | 0.608 | 0.583 |
| HOP-62 | 0.421 | 0.509 | 0.475 | 0.51 | 1.23 | 0.968 | 1.01 | 0.977 | 0.86 | 0.562 | 0.572 | 0.836 | 0.53 | 0.453 | 0.46 | 0.402 | 0.981 | 0.905 | 0.774 | 1.01 |
| IA-LM |  |  |  |  | 1.09 |  | 0.855 | 1.02 | 0.355 | 0.353 | 0.426 | 0.566 |  |  |  |  |  |  |  |  |
| LC-2-ad | 0.938 | 0.901 | 0.875 | 0.919 | 0.946 | 0.787 | 0.823 | 0.836 | 0.588 | 0.563 | 0.397 | 0.473 | 0.561 | 0.507 | 0.487 | 0.49 | 0.827 | 0.926 | 0.891 | 0.979 |
| LCLC-97TM1 | 0.211 | 0.198 | 0.205 | 0.216 | 0.744 | 0.488 | 0.416 | 0.755 | 0.186 | 0.151 | 0.159 | 0.13 | 0.196 | 0.154 | 0.177 | 0.178 | 0.71 | 0.574 | 0.699 | 0.606 |
| LCLC-103H | 0.748 | 0.653 | 0.685 | 0.681 |  |  |  |  | 0.737 | 0.618 | 0.558 | 0.622 | 0.536 | 0.434 | 0.45 | 0.455 | 0.974 | 0.985 | 0.933 | 0.999 |
| LK-2 | 0.586 | 0.511 | 0.638 | 0.497 | 0.613 | 0.625 | 0.458 | 0.43 | 0.378 | 0.278 | 0.262 | 0.306 | 0.51 | 0.393 | 0.387 | 0.243 | 0.188 | 0.214 | 0.145 | 0.191 |
| LOU-NH91 | 0.846 | 0.793 | 0.685 | 0.765 | 0.76 | 0.704 | 0.544 | 0.605 | 0.534 | 0.517 | 0.477 | 0.519 | 0.514 | 0.53 | 0.501 | 0.562 | 0.361 | 0.329 | 0.316 | 0.377 |
| LU99A | 0.661 | 0.533 |  | 0.634 | 1.02 | 0.879 |  | 0.987 | 0.32 | 0.263 |  | 0.316 | 0.482 | 0.372 |  | 0.365 | 0.229 | 0.19 |  | 0.23 |
| LXF-289 | 0.74 | 0.686 | 0.692 | 0.694 | 0.9 | 0.934 | 0.868 | 0.981 | 0.834 | 0.773 | 0.775 | 0.935 | 0.597 | 0.606 | 0.565 | 0.562 | 0.758 | 0.583 | 0.61 | 0.805 |
| NCI-H23 | 0.409 | 0.352 | 0.324 | 0.442 | 1.32 | 0.888 | 0.994 | 1.19 | 0.637 | 0.462 | 0.385 | 0.442 | 0.468 | 0.43 | 0.496 | 0.485 | 0.205 | 0.229 | 0.216 | 0.179 |
| NCI-H322M | 0.532 | 0.518 | 0.517 | 0.511 | 0.651 | 0.633 | 0.508 | 0.603 | 0.565 | 0.526 | 0.462 | 0.447 | 0.501 | 0.489 | 0.516 | 0.43 | 0.958 | 0.818 | 0.739 | 0.666 |
| NCI-H358 | 0.133 | 0.111 | 0.129 | 0.129 | 0.489 | 0.359 | 0.523 | 0.424 | 0.374 | 0.294 | 0.327 | 0.322 | 0.278 | 0.13 | 0.126 | 0.127 | 0.463 | 0.218 | 0.251 | 0.257 |
| NCI-H441 | 0.563 | 0.536 | 0.508 | 0.407 |  |  |  |  | 0.51 | 0.563 | 0.42 | 0.409 | 0.25 | 0.222 | 0.197 | 0.169 | 0.288 | 0.363 | 0.314 | 0.264 |
| NCI-H522 | 0.777 | 0.777 | 0.656 | 0.747 |  |  |  |  |  |  |  |  | 1.27 | 0.808 | 1.1 | 0.998 | 1.31 | 0.984 | 1.27 | 1.16 |
| NCI-H596 | 0.814 | 0.842 | 0.901 | 0.847 | 1.19 | 1.06 | 0.799 | 0.99 | 0.419 | 0.247 | 0.412 | 0.407 |  |  |  |  | 1.27 | 1.07 | 1.09 | 0.851 |
| SW 900 | 0.818 |  | 0.832 | 0.941 |  |  |  |  |  |  |  |  | 0.464 |  | 0.45 | 0.479 | 0.174 | 0.166 | 0.156 | 0.196 |
